Data taken from patent KR20230059409A, “Egf 유래 신규 펩타이드 및 이의 용도” (고려대학교 산학협력단, priority 2021, dated 2023).
No end group written: not given here.

Legend:
[1] = system: 인간유래 중간엽줄기세포(hMSC); test: 3D spheroid stem cell migration test (branch sprouting in collagen matrix); type: cell-based, human; details: peptide in DMEM 10uM / 100uM, 37℃, 16 h; for extent of stem cell branches extending from 3D spheroid (Fig. 2): compared with EGF group or DMEM only
[2] = system: hMSC; test: 2D traction force microscope stem cell migration test; type: cell-based, human; details: 24 h imaging; for effect on stem cell mobility (conclusion of the test): hMSC

Row | Substance | length of stem cell branches extending from 3D spheroid, quantified (Fig. 3) [1] | extent of stem cell branches extending from 3D spheroid (Fig. 2) [1] | stem cell migration speed (Fig. 7 and 8) ([2]; hMSC on collagen-coated PA gel with fluorescent beads, compared among EGF, EGP 2, JEP 4 media) | effect on stem cell mobility (conclusion of the test) [2]
1 | NTKVGYIGEREQYRDLK-NH2 [EGP2] | 줄기세포 가지가 상대적으로 긴 것으로 나타났다 | 줄기세포 가지가 가장 많이 뻗어나간 것을 확인 | 속도가 가장 빠른 것으로 나타났다 | 줄기세포의 이동성을 증진시키는 효과가 있음
2 | YCLHDGVSMYIEALDKYACN [JEP4] | 줄기세포 가지가 상대적으로 긴 것으로 나타났다 | 줄기세포 가지가 가장 많이 뻗어나간 것을 확인 |  | 줄기세포의 이동성을 증진시키는 효과가 있음
